Values of other authors as cited in US20260272826A1 (THEAPRIN PHARMACEUTICALS, INC., priority 2017, published 2026).

Legend:
[1] = tribasic
rats = conditions: rat, in vivo
[2] = system: thrombin stimulated thromboxane formulation in whole blood; conditions: theanine by itself

Structure (SMILES) | pKa 1 ([1]; first of pKa 1-3) | pKa 2 ([1]; second of pKa 1-3) | pKa 3 ([1]; third of pKa 1-3) | solubility in water | LD50 toxicity (rats) [mg/kg] | inhibition of thrombin stimulated thromboxane formulation [2]
O=C(O)CC(O)(CC(=O)O)C(=O)O [Citric Acid, 2-hydroxypropane-1,2,3-tricarboxylic acid] | 5.21 | 4.28 | 2.92 |  |  | 
CCNC(=O)CC[C@H](N)C(=O)O [L-theanine, N-ethyl-L-glutamine] |  |  |  | soluble in water | > 5000 | potent inhibitor
